# Experimental data from US20090281049A1, “New use of ginsenoside compound-k in manufacturing medicaments” (priority 2006, published 2009).
# Legend:
# [1] = tested on: Adjuvant Arthritis in rats; experiment: Treatment effect on adjuvant induced adjuvant arthritis in rats; assay type: in vivo, Rat, SD strain; conditions: 1 mg/kg po
# Procedure: (§1) Freund's Adjuvant Complete, purchased from Sigma Company, was injected into the plantar surface of the right hind paw by 0.1 ml in order to induce inflammation in rats.
# (§2) Animals were firstly divided into large dose group: 10 mg/kg, iv, medium dose group: 5 mg/kg, iv, small dose group: 2.5 mg/kg, iv, Indomethacin group: 1 mg/kg, po, Tripterygium Wilfordii Hook group: 1.5 mg/kg, po. and blank control group: physiological saline 10 mg/kg, iv. The volume of the right hind paw of the rats was measured by using hydroplethismometer before inflammation induced. Then 0.1 ml Freund's Adjuvant Complete was injected into the plantar surface of the right hind paw in order to induce inflammation in rats. 20 days after inflammation induced, the rats were grouped by the foregoing division method and to be administered for 8 days. The volume of paw was measured in regular intervals. Swell rate and inhibition rate were calculated with the same method as the foregoing. Differences among groups were compared with t test.
# [2] = tested on: carrageenan-induced acute inflammation in mice; experiment: Carrageenan-induced paw edema in mice; assay type: in vivo, Kunming mice; conditions: 1 mg/kg po
# [3] = tested on: Adjuvant Arthritis in rats; experiment: Preventive effect on adjuvant induced adjuvant arthritis in rats; assay type: in vivo, Rat, SD strain; conditions: 1 mg/kg po
# Procedure: as §1
# as §2, with “mg/kg, po” for “mg/kg, po.”, “rats. The” for “rats. 20 days after inflammation induced, the”, “division way in the succeeding day,” for “division method”, “for 15” for “for 8”, “calculated by” for “calculated with”, “compared by” for “compared with”
# [4] = tested on: carrageenan-induced acute inflammation in rats; experiment: Carrageenan-induced paw edema in rats; assay type: in vivo, Rat, SD strain; conditions: 1 mg/kg po
# Procedure: Animals were firstly divided into large dose group: 10 mg/kg, iv, medium dose group: 5 mg/kg, iv, small dose group: 2.5 mg/kg, iv, an Indomethacin group: 1 mg/kg, po and a blank control group: physiological saline 10 mg/kg, iv. The animals were administered by the foregoing method for 3 days. The volume of the right hind paw of the rats was measured using hydroplethismometer before inflammation induced. 1 hour after the last administration, 0.1 ml 1% carrageenan was injected into the plantar surface of the right hind paw in order to induce inflammation. The volume of the right hind paw of the rats was measured by hydroplethismometer every other hour thereafter respectively. Swell rate and inhibition rate were calculated by the same method as above. Differences among groups were compared with t test.
# [5] = tested on: Collagen Type II (CII) induced arthritis in rats; experiment: Treatment effect on Collagen Type II (CII) induced arthritis in rats; assay type: in vivo, Rat, SD strain; conditions: 9 mg/kg sc
# Procedure: (§3) Inflammation-induced agent: Collagen Type II was dissolved in 0.1 mol/L acetic acid to make final concentration be 2 mg/ml collagen solution, and held in 4° C. overnight. The Collagen Type II solution was added to cold Freund's Adjuvant Incomplete by drops (Collagen Type II: Freund's Adjuvant Incomplete=1:1) on the next day, emulsified completely (Type II Collagen solution: Freund's Adjuvant Incomplete=1:1), and the final concentration of Collagen Type II was 1 mg/ml. The Collagen Type II emulsion was reserved in a refrigerator at 4° C.
# (§4) Immune method: Each rat was immunized by being injected subcutaneously at 5 points on the back with 0.1 ml emulsion in each point, total of […] (contained 0.5 mg Collagen Type II), and immunized again in the same way 7 days later. An emulsion of 0.1 mol/L acetic acid and Freund's Adjuvant Incomplete was injected in control group. The swell values of the arthrosis in right hind ankle and foot were measured respectively by using a hydroplethismometer before injection and 20 days after immunization.
# Collagen Type II (CII) and Freund's Adjuvant Incomplete were ground into emulsion and were injected subcutaneously into the back of the rats for immunization. Until the 19th day, most parts of the pedal joint of the rats began to swell. Picked 40 rats out which were with swelled pedal joint and divided them into […] subsequently, i.e. 8 rats in each group. They are respectively […]: Ginsenoside Compound-K, 10 mg/kg, iv, medium dose group: Ginsenoside Compound-K, 5 mg/kg, iv, small dose group: Ginsenoside Compound-K, 2.5 mg/kg, iv, Enbrel group: 9 mg/kg, sc, Tripterygium Wilfordii Hook group: 1.5 mg/kg, po. and blank control group: physiological saline 10 mg/kg, iv. The rats were administered for 8 days consecutively. The swell value of the foot was measured respectively by using hydroplethismometer before inflammation induced and at different time after the onset of symptoms, then calculated swell rate and prohibition rate, and compared the differences among groups with t test.
# [6] = tested on: Collagen Type II (CII) induced arthritis in rats; experiment: Preventive effect on Collagen Type II (CII) induced arthritis in rats; assay type: in vivo, Rat, SD strain; conditions: 9 mg/kg sc
# Procedure: as §3, §4
# The Collagen Type II solution, which had been dissolved in acetic acid and held overnight, was adjusted to concentration 2 mg/ml, then added by drops slowly to Freund's Adjuvant Incomplete in proportion of 1:1. After the mixture was emulsified completely, each rat was injected subcutaneously at 5 points on the back with 0.1 ml emulsion in each point (total 0.5 ml in each rat, containing 0.5 mg Collagen Type II) for the first immunization. 7 days later, the second immunization was repeated in the same way.
# The animals were divided into large dose group: Ginsenoside Compound-K, 10 mg/kg, iv, medium dose group: Ginsenoside Compound-K, 5 mg/kg, iv, small dose group: Ginsenoside Compound-K, 2.5 mg/kg, iv, Tripterygium Wilfordii Hook group: 1.5 mg/kg, po-, Enbrel group: 9 mg/kg, sc and blank control group: physiological saline 10 mg/kg, iv. The animals of administration groups were administered at the first immunization and stopped administering 8 days after the first immunization. The swell value of arthrosis in ankle and foot was measured by using hydroplethismometer before immunization and on day 20, 22, 24, 27 and 29 after the first immunization respectively. Swell rate and inhibition rate were calculated by the same method as the foregoing. Differences among groups were compared with t test. When the treatment finished, the arthroses in ankle and foot were taken for pathological examination.
compound,measurement,setting,value
"COc1ccc2c(c1)c(CC(=O)O)c(C)n2C(=O)c1ccc(Cl)cc1 [Indomethacin, reference compound]",swell value,[1]; 0 day,1.14 ± 0.05 mL
same,inhibition rate,[1]; 19 day,<18.65> %
same,swell rate,[1]; 19 day,(80.03 ± 17.69) %
same,swell value,[1]; 19 day,2.04 ± 0.20 mL
same,inhibition rate,[1]; 21 day,<19.05> %
same,swell rate,[1]; 21 day,(85.98 ± 15.49) %
same,swell value,[1]; 21 day,2.11 ± 0.17 mL
same,inhibition rate,[1]; 23 day,<19.09> %
same,swell rate,[1]; 23 day,(86.16 ± 15.90) %
same,swell value,[1]; 23 day,2.11 ± 0.17 mL
same,inhibition rate,[1]; 26 day,<20.41> %
same,swell rate,[1]; 26 day,(89.32 ± 16.25) %
same,swell value,[1]; 26 day,2.15 ± 0.16 mL
same,inhibition rate,[1]; 30 day,<12.14> %
same,swell rate,[1]; 30 day,(92.39 ± 20.26) %
same,swell value,[1]; 30 day,2.18 ± 0.23 mL
same,swell value,[2]; 0 h,1.47 ± 0.14 mL
same,inhibition rate,[2]; 1 h,<2.39> %
same,swell rate,[2]; 1 h,(67.11 ± 17.30) %
same,swell value,[2]; 1 h,2.44 ± 0.19 mL
same,inhibition rate,[2]; 2 h,<16.11> %
same,swell rate,[2]; 2 h,(60.95 ± 18.36) %
same,swell value,[2]; 2 h,2.35 ± 0.20 mL
same,inhibition rate,[2]; 4 h,<36.57> %
same,swell rate,[2]; 4 h,(51.04 ± 14.09) %
same,swell value,[2]; 4 h,2.21 ± 0.11 mL
same,inhibition rate,[2]; 6 h,<24.41> %
same,swell rate,[2]; 6 h,(55.36 ± 19.90) %
same,swell value,[2]; 6 h,2.26 ± 0.11 mL
same,swell value,[3]; 0 day,1.23 ± 0.11 mL
same,inhibition rate,[3]; 2 day,<27.67> %
same,swell rate,[3]; 2 day,(52.34 ± 15.07) %
same,swell value,[3]; 2 day,1.85 ± 0.09 mL
same,inhibition rate,[3]; 4 day,<20.69> %
same,swell rate,[3]; 4 day,(70.99 ± 17.35) %
same,swell value,[3]; 4 day,2.08 ± 0.13 mL
same,inhibition rate,[3]; 6 day,<12.34> %
same,swell rate,[3]; 6 day,(78.32 ± 23.41) %
same,swell value,[3]; 6 day,2.17 ± 0.17 mL
same,inhibition rate,[3]; 9 day,<4.11> %
same,swell rate,[3]; 9 day,(69.44 ± 27.12) %
same,swell value,[3]; 9 day,2.06 ± 0.23 mL
same,inhibition rate,[3]; 11 day,<32.39> %
same,swell rate,[3]; 11 day,(52.68 ± 12.02) %
same,swell value,[3]; 11 day,1.86 ± 0.13 mL
same,inhibition rate,[3]; 13 day,<35.93> %
same,swell rate,[3]; 13 day,(53.00 ± 15.57) %
same,swell value,[3]; 13 day,1.86 ± 0.13 mL
same,inhibition rate,[3]; 15 day,<35.50> %
same,swell rate,[3]; 15 day,(52.00 ± 11.27) %
same,swell value,[3]; 15 day,1.86 ± 0.13 mL
same,swell value,[4]; 0 h,1.34 ± 0.15 mL
same,inhibition rate,[4]; 1 h,<4.23> %
same,swell rate,[4]; 1 h,(22.51 ± 10.19) %
same,swell value,[4]; 1 h,1.68 ± 0.10 mL
same,inhibition rate,[4]; 2 h,<20.44> %
same,swell rate,[4]; 2 h,(25.65 ± 14.10) %
same,swell value,[4]; 2 h,1.72 ± 0.16 mL
same,inhibition rate,[4]; 3 h,<20.17> %
same,swell rate,[4]; 3 h,(33.28 ± 13.54) %
same,swell value,[4]; 3 h,1.82 ± 0.17 mL
same,inhibition rate,[4]; 4 h,<26.76> %
same,swell rate,[4]; 4 h,(28.45 ± 15.71) %
same,swell value,[4]; 4 h,1.77 ± 0.22 mL
same,inhibition rate,[4]; 5 h,<37.84> %
same,swell rate,[4]; 5 h,(23.04 ± 11.45) %
same,swell value,[4]; 5 h,1.69 ± 0.15 mL
enbrel,swell value,[5]; 0 day,1.00 ± 0.08 mL
same,inhibition rate,[5]; 20 day,<4.41> %
same,swell rate,[5]; 20 day,(51.65 ± 15.35%
same,swell value,[5]; 20 day,1.51 ± 0.11 mL
same,inhibition rate,[5]; 22 day,<17.61> %
same,swell rate,[5]; 22 day,(49.63 ± 25.60) %
same,swell value,[5]; 22 day,1.48 ± 0.15 mL
same,inhibition rate,[5]; 23 day,<20.98> %
same,swell rate,[5]; 23 day,(49.20 ± 19.86) %
same,swell value,[5]; 23 day,1.48 ± 0.12 mL
same,inhibition rate,[5]; 25 day,<24.74> %
same,swell rate,[5]; 25 day,(46.43 ± 15.37) %
same,swell value,[5]; 25 day,1.46 ± 0.11 mL
same,inhibition rate,[5]; 28 day,<27.88> %
same,swell rate,[5]; 28 day,(37.24 ± 17.23) %
same,swell value,[5]; 28 day,1.36 ± 0.09 mL
same,inhibition rate,[5]; 31 day,<26.03> %
same,swell rate,[5]; 31 day,(36.24 ± 14.64) %
same,swell value,[5]; 31 day,1.35 ± 0.08 mL
same,swell value,[6]; 0 day,1.06 ± 0.04 mL
same,inhibition rate,[6]; 20 day,<30.52> %
same,swell rate,[6]; 20 day,(36.48 ± 15.50) %
same,swell value,[6]; 20 day,1.38 ± 0.20 mL
same,inhibition rate,[6]; 22 day,<31.53> %
same,swell rate,[6]; 22 day,(35.30 ± 14.25) %
same,swell value,[6]; 22 day,1.36 ± 0.22 mL
same,inhibition rate,[6]; 24 day,<35.50> %
same,swell rate,[6]; 24 day,(33.88 ± 13.57) %
same,swell value,[6]; 24 day,1.34 ± 0.21 mL
same,inhibition rate,[6]; 27 day,<36.49> %
same,swell rate,[6]; 27 day,(32.16 ± 15.12) %
same,swell value,[6]; 27 day,1.34 ± 0.20 mL
same,inhibition rate,[6]; 29 day,<36.99> %
same,swell rate,[6]; 29 day,(27.63 ± 10.87) %
same,swell value,[6]; 29 day,1.31 ± 0.16 mL
